Consider one molecule from patent publication US20210246140A1, “MODULATORS OF METABOTROPIC GLUTAMATE RECEPTOR 2” (The General Hospital Corporation, priority 2020, published 2021).

Series [1] can be described thus: Solution stability in aqueous buffers at different pH. Type of series: physicochemical. The note with it: buffer solutions at pH 5.0, 7.4 and 9.4, 37° C., 2 h. The method, then:
The solution stability of 3 was examined in the aqueous buffers at different pH values. 50 μL of compound in DMSO (0.25 mM) was added to the sodium acetate-KCl—HCl buffer (950 μL, 20 mM, pH 5.0), phosphate buffer (950 μL, 20 mM, pH 7.4), and boric acid-KCl—NaOH buffer (950 μL, 20 mM, pH 9.4), respectively. The mixtures were incubated for 2 h at 37° C. and analyzed by HPLC (Phenomenex Luna® column, 5 μm C18, 100 Å, 250×4.6 mm, eluents: CH3CN/H2O in 0.1% formic acid).
The in vitro plasma and liver microsomal stability of 1 and 2 were studied by incubating the test compounds in rat serum and rat liver microsomes as well as NADPH cofactor, respectively, using previously published methods [see refs. 57, 58]. Diltiazem and ML128 (a mGluR4 PAM) [see refs. 59, 60] were used as co-assay QC controls for plasma and microsomal stability assays, respectively, to ensure that the assays were operating properly, and that the activity of the plasma and microsomes were consistent with established criteria. […] The solution stability of 1 was evaluated with buffer solutions at pH 5.0, 7.4 and 9.4, respectively (FIGS. 10 and 20) [see refs. 61].

Series [2] is described as follows: Plasma stability in rat serum. The following applies: 37° C., diltiazem as positive control. Format: in vitro ADME. The procedure: Compound stability in rat serum was examined using a published method. [See ref. 57] Rat serum (100 μL, Abeam, Inc, No. ab7488) and test compound or control compound (2.5 μL, 1 mM in DMSO) was added to the individual tube. The tube was vortexed and incubated at 37° C. During the incubation, aliquots of 50 μL samples were quenched with ice-cold acetonitrile at 0, 15, 30, 60, and 120 min time points, respectively. After mixing, the quenched samples were centrifuged, and the supernatant was withdrawn for analysis by HPLC (Agilent 1260 infinity II LC System, XTerra™ MS C18, 5μ, 2.1×250 mm, 20 mM ammonium formate (A)/acetonitrile (B), 0.25 mL/min, gradient of 5% to 100% B). The samples were assayed at least three times. Compound 1-OH was used as internal standard while diltiazem was used as a positive control. The percentage remaining was calculated by (peak area at the specific time point)/(peak area at 0 min)×100% (FIG. 7).
The in vitro plasma and liver microsomal stability of 1 and 2 were studied by incubating the test compounds in rat serum and rat liver microsomes as well as NADPH cofactor, respectively, using previously published methods [see refs. 57, 58]. […] The solution stability of 1 was evaluated with buffer solutions at pH 5.0, 7.4 and 9.4, respectively (FIGS. 10 and 20) [see refs. 61].

Another series addresses T1, mGluR2 (Homo sapiens, UniProt Q14416).
T1 construct: expressed in transfected cells
The following applies: calcium flux, Gα15 or Gα16 forced coupling; read-out: previously reported mGluR2 EC50; cited from earlier work.

The nature of a further series: Determination of Log P. Format: physicochemical. The note with it: experimental lipophilicity. The procedure: Determination of Log P The Log P was determined using a reversed-phase HPLC method. First, seven reference compounds were examined to obtain the linear regression of the log P against the log of capacity factors by the expression: log Pow=a+b*log k. The Log P of these reference compounds was already been determined. The capacity factor k was calculated by the expression: k=(tR−t0)/t0. The retention time tR of test compound was determined on the HPLC (Agilent 1260 infinity II LC System, XTerra™ MS Cis 5μ 2.1×250 mm, methanol/water=75/25, 0.25 mL/min). The dead-time to was measured by using thiourea. The linear regression equation of the Log P against the log of capacity factors was generated in Excel: log Pow=3.049+2.429*log k, where R^2 was 0.9964. The retention time of compound 1, 2, and 7 was also determined on the HPLC under the same condition and each test was repeated three times (FIG. 5).
The experimental lipophilicity was measured by using liquid-liquid partition between n-octanol and water (“shake-flask method”) [see ref. 54]. […] The plasma protein binding comprises compounds' binding to albumin, α1-acid glycoprotein and lipoproteins once delivered to the bloodstream. This property was evaluated for compounds 1 and 2 by equilibrium dialysis [see ref. 56], where two chambers were separated by a dialysis membrane (MWCO 8 kD). The plasma protein bindings of 1 and 2 are 87.2% and 88.7%, respectively (see FIGS. 20 and 6). Therefore, the high plasma free fraction of compounds 1 and 2 (>10%) would allow enough free drug concentration in blood stream to reach the brain targets.

The test system of series [3] is other mGlu receptors (mGluR1, mGluR3, mGluR4, mGluR5, mGluR6, mGluR8). The experiment in a line: Selectivity among mGluR subtypes (Ca2+ mobilization assay and cAMP assay). Format: cell-based. The note with it: mGluR1 and mGluR5 by Ca2+ mobilization; mGluR3, 4, 6, 8 by cAMP assay. The method, then: The Gq coupled receptors (mGluR1 and mGluR5) were tested using Ca^2+ mobilization assay. mGluR1 stable cell lines were plated into poly-L-lysine (PLL) coated 384-well black clear bottom cell culture plates with complete Basal Medium Eagle (BME) buffer, which was composed of 10% dialyzed FBS, penicillin G (100 units/mL), streptomycin (100 μg/mL) with tetracycline (1 μg/mL) at density of 20,000 cells in 40 μl per well for overnight. On the other hand, HEK-293 Cells transiently transfected using the calcium phosphate method with cDNA encoding mGluR5 for 40 h were plated into the plate with complete BME at density of 20,000 cells in 40 μL per well for 8 h. mGluR1 stable cells or cells transiently expressing mGluR5 were incubated with 20 μL of the calcium dye (FLIPR Calcium 4 Assay Kit; Molecular Devices) diluted in the assay buffer (1×FIBSS, 2.5 mM probenecid, and 20 mM HEPES, pH 7.4) for 45 min at 37° C. and 15 min at room temperature. To measure agonist activity of receptors, the drug plates were prepared with different concentrations of test or reference compound at 3 times the desired final concentration. […] Once loaded in FLIPR (Molecular Devices), basal fluorescence was measured for 10 s, then 10 μL of test or reference compounds were added, followed by continued fluorescence measurement for an additional 120 s. […]

Series [4] is described as follows: PAMPA-BBB (parallel artificial membrane permeation assay). The following applies: pH 7.4, 18 h.

T1 sequence (Q14416 19-872): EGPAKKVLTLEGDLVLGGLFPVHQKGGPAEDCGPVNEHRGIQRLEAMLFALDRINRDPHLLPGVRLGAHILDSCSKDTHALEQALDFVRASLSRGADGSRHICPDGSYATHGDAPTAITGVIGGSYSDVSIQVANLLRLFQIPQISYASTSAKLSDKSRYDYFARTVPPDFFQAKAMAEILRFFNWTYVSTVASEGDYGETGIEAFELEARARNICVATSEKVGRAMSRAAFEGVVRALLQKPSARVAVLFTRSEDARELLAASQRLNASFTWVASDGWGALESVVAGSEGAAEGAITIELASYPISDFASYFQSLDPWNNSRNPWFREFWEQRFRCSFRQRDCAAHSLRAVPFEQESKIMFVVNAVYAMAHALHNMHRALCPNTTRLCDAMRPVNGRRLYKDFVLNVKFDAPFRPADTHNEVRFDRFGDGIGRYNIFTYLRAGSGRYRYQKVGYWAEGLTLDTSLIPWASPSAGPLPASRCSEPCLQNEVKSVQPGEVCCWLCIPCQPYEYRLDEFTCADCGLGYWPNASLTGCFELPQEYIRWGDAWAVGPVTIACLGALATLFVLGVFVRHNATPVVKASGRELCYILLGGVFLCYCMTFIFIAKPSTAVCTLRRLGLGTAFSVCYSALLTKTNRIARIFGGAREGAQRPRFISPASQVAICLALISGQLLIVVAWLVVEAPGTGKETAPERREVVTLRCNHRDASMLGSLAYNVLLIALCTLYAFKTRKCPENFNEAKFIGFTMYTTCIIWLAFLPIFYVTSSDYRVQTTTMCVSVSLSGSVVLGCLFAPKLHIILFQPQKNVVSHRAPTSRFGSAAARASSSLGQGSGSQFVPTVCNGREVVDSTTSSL

For `COc1cc(C(F)(F)F)ccc1C1CCN(Cc2nc3ncccc3n2C)CC1` [Compound 1], the “solution stability” value in series [1] is “relatively stable”. Besides, the “stability in rat plasma” value in series [2] was “much more stable than diltiazem”. Moreover, the EC50 on mGluR2 is 13 nM. The “Log P” value in “Determination of Log P” is recorded as 3.65. Also, the “selectivity against other mGlu receptor subtypes” value in series [3] is > 100 fold. In addition, the “effective permeability Pe” value in series [4] stood at 9.2 ×10⁻⁶ cm/s.
